According to US7205305B2, “Inhibitors of p38” (Vertex Pharmaceuticals Incorporated, priority 1996, dated 2007):

Assays:
[1] = tested on: IL-1 production in whole blood; test: Inhibition of IL-1 production in LPS-stimulated whole blood ("WB"); assay type: cell-based, human; conditions: Homo sapiens
Protocol: (§1) Inhibitors were serially diluted in DMSO from a 20 mM stock. At least 6 serial dilutions were prepared. Then 4× inhibitor stocks were prepared by adding 4 μl of an inhibitor dilution to 1 ml of RPMI1640 medium/10% fetal bovine serum. The 4× inhibitor stocks contained inhibitor at concentrations of 80 μM, 32 μM, 12.8 μM, 5.12 μM, 2.048 μM, 0.819 μM, 0.328 μM, 0.131 μM, 0.052 μM, 0.021 μM etc. The 4× inhibitor stocks were pre-warmed at 37° C. until use.
(§2) Alternatively, whole blood containing an anti-coagulant was used directly in the assay.
(§3) We placed 100 μl of cell suspension or whole blood in each well of a 96-well cell culture plate. Then we added 50 μl of the 4× inhibitor stock to the cells. Finally, we added 50 μl of a lipopolysaccharide (LPS) working stock solution (16 ng/ml in cell culture medium) to give a final concentration of 4 ng/ml LPS in the assay. The total assay volume of the vehicle control was also adjusted to 200 μl by adding 50 μl cell culture medium. The PBMC cells or whole blood were then incubated overnight (for 12–15 hours) at 37° C./5% CO2 in a humidified atmosphere.
(§4) The next day the cells were mixed on a shaker for 3–5 minutes before centrifugation at 500×g for 5 minutes. Cell culture supernatants were harvested and analyzed by ELISA for levels of IL-1b (R & D Systems, Quantikine kits, #DBL50), TNF-α (BioSource, #KHC3012), IL-6 (Endogen, #EH2-IL6) and IL-8 (Endogen, #EH2-IL8) according to the instructions of the manufacturer. The ELISA data were used to generate dose-response curves from which IC50 values were derived.

[2] = tested on: TNF production in LPS-stimulated PBMCs; test: Inhibition of TNF production in LPS-stimulated PBMCs ("cell"); assay type: cell-based, human; conditions: Homo sapiens, PBMC
In short: (§5)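 Cytokine levels (IL-1β, TNF-α) in culture supernatants quantified by ELISA, with IC50 taken from dose-response curves. Fresh human PBMCs in RPMI1640 with 10% FBS received serially diluted compound plus LPS (4 ng/ml final) and were cultured 12–15 h at 37 °C, 5% CO2.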

[3] = tested on: IL-6 production in whole blood; test: Inhibition of IL-6 production in LPS-stimulated whole blood ("WB"); assay type: cell-based, human; conditions: Homo sapiens
Protocol: as §1, §2, §3, §4

activated p38 = activated p38 (Homo sapiens, UniProt Q16539); test: Inhibition of phosphorylation of EGF receptor peptide ("kinase"); assay type: biochemical; conditions: inhibition of phosphorylation of EGF receptor peptide by activated p38
In short: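 Activated p38 was preincubated with inhibitor for 15 min at room temperature in 100 mM HEPES pH 7.6, 10 mM MgCl2, 25 mM β-glycerophosphate, 10% glycerol, 5% DMSO final. Reaction used 200 μM EGF receptor peptide and 100 μM ATP for 30 min at 30° C. TFA-quenched phosphopeptide was quantified by reverse-phase HPLC.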

[4] = tested on: IL-1 production in LPS-stimulated PBMCs; test: Inhibition of IL-1 production in LPS-stimulated PBMCs ("cell"); assay type: cell-based, human; conditions: Homo sapiens, PBMC
In short: as §5

[5] = tested on: TNF production in whole blood; test: Inhibition of TNF production in LPS-stimulated whole blood ("WB"); assay type: cell-based, human; conditions: Homo sapiens
Protocol: as §1, §2, §3, §4

Chain of activated p38 (Q16539 whole entry): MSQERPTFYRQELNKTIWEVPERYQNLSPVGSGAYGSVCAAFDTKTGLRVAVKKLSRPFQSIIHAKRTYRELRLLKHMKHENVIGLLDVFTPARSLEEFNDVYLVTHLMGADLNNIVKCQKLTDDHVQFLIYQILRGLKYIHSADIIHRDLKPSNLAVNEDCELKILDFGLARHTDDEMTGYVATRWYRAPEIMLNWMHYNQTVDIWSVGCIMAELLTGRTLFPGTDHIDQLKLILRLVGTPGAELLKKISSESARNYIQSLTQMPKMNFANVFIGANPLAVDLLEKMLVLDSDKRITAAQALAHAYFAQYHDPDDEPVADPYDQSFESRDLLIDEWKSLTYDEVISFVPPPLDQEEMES

SMILES | IC50 [1] [nM] | IC50 [2] [nM] | IC50 [3] [nM] | IC50 (activated p38) [nM] | IC50 [4] [nM] | IC50 [5] [nM]
Cc1cc(F)ccc1-c1cccc(C(C(N)=O)c2c(Cl)cc(N)cc2Cl)n1 (stereo not drawn) [Compound 364] | ≥ 500 | 100 to 500 | ≥ 500 | ≤ 100 | ≤ 100 | ≥ 500
Nc1ccc(C2=C3C=CC(Sc4ccc(F)cc4)=NN3CNC2=O)c(Cl)c1 [Compound 137] | ≥ 500 | 100 to 500 | 250 to 500 | ≤ 100 | ≤ 100 | ≥ 500
NC(=O)C(c1cccc(-c2ccccc2CN2CCNCC2)n1)c1c(Cl)cccc1Cl (stereo not drawn) [Compound 304] | ≥ 500 | ≥ 500 | ≥ 500 | ≥ 1000 | ≥ 500 | ≥ 500
Nc1ccccc1SC1=NN2CNC(=O)C(c3c(Cl)cccc3Cl)=C2C=C1 [Compound 115] | ≥ 500 | ≤ 100 | ≥ 500 | ≤ 100 | ≤ 100 | ≥ 500
Nc1cc(F)ccc1Sc1ccc2c(-c3c(Cl)cccc3Cl)c(=O)ncn2n1 [Compound 35] | ≥ 500 | ≥ 500 | ≥ 500 | 100 to 1000 | 100 to 500 | ≥ 500
O=C(O)c1ccccc1Sc1ccc2c(-c3c(Cl)cccc3Cl)c(=O)ncn2n1 [Compound 27] | ≥ 500 | ≥ 500 | ≥ 500 | 100 to 1000 | ≥ 500 | ≥ 500
O=C1NCN2N=C(Sc3ccccc3Br)C=CC2=C1c1c(Cl)cccc1Cl [Compound 109] | ≥ 500 | ≤ 100 | 250 to 500 | ≤ 100 | ≤ 100 | ≥ 500
Cc1cc(Cl)ccc1SC1=NN2CNC(=O)C(c3c(Cl)cccc3Cl)=C2C=C1 [Compound 106] | ≥ 500 | ≤ 100 | 250 to 500 | ≤ 100 | ≤ 100 | 250 to 500
O=C(CCl)Nc1ccc(-c2c(=O)ncn3nc(Sc4ccc(F)cc4)ccc23)c(Cl)c1 [Compound 49] | ≥ 500 | ≥ 500 | ≥ 500 | 100 to 1000 | ≤ 100 | ≥ 500
COc1cc(Cl)c(C2=C3C=CC(Sc4ccc(F)cc4)=NN3CNC2=O)cc1O [Compound 135] | ≥ 500 | ≥ 500 | ≥ 500 | ≤ 100 | 100 to 500 | ≥ 500
Cc1cccc(-c2cccc(C(C(N)=O)c3c(F)cccc3Cl)n2)c1 (stereo not drawn) [Compound 332] | ≥ 500 | ≥ 500 | ≥ 500 | 100 to 1000 | 100 to 500 | ≥ 500
CN(C)/C=N\c1ccc(C2=C3C=CC(Sc4ccc(F)cc4Cl)=NN3CNC2=O)c(Cl)c1 [Compound 140] | 250 to 500 | ≤ 100 | 250 to 500 | ≤ 100 | ≤ 100 | ≥ 500
N#Cc1ccccc1SC1=NN2CNC(=O)C(c3c(Cl)cccc3Cl)=C2C=C1 [Compound 116] | ≥ 500 | 100 to 500 | ≥ 500 | ≤ 100 | ≤ 100 | ≥ 500
O=C(CN1CCOCC1)Nc1ccc(C2=C3C=CC(Sc4ccc(F)cc4)=NN3CNC2=O)c(Cl)c1 [Compound 144] | ≥ 500 | 100 to 500 | 250 to 500 | ≤ 100 | ≤ 100 | ≥ 500
Cc1cc(F)ccc1-c1cccc(N(C(N)=O)c2c(F)cccc2F)n1 [Compound 410] | 250 to 500 | ≤ 100 | 250 to 500 | ≤ 100 | ≤ 100 | 250 to 500
